From US12678425B2, “Methods for treating against viruses” (Howard University, priority 2019, dated 2026)

How the values were obtained:
[1] = system: RACK1A Y248 phosphorylation; assay: Immunoblot of ABA-induced RACK1A Y248 phosphorylation in seedlings; type: cell-based, Arabidopsis; details: 10 μM ABA, 12 hours
[2] = system: Hep-2 cells infected with HSV-1; assay: Fluorescence cell sort in Cellometer, HSV-1 infected Hep-2 cells; type: cell-based, human; details: 24-h incubation, HSV-1 MOI 1.0
Description: FIG. 13 depicts the quantification of fluorescent cells by Image based cell sorting in a Cellometer (Nexcelom Vision), based on the experiments depicted in FIG. 12. […] The cells were prepared by immunostaining with ICP0 antibody after 24-h incubation with the indicated compounds. The total cell counts were 1.01×10^6/ml, 4.69×10^6/ml, and 5.36×10^6/ml for DMSO, SD29-14 (10 μM), and SD29-14 (100 μM) respectively. The numbers show the mean f SE of three replicates.
Fluorescence Cell Sort: Hep-2 cells were grown to about 80% confluency in T25 Cell culture flask and were co-infected with HSV-1 at a MOI of 1.0 for 24 h along with the indicated inhibitor compounds and control. After trypsinization, the cells were fixed in 4% paraformaldehyde-PBS. The cells were treated in the same method as described in the immunofluorescence and confocal microscopy method section. The labeled cells were counted in a Nexcelom Vision Cellometer equipped with Brightfield & 2 Fluorescence Channels Filter Set 101: Excitation/Emission Peak: 475 nm/535 nm and Filter Set 202: Excitation/Emission Peak: 525 nm/595 nm. […] Bright-field and fluorescent images were then captured and analyzed at four different locations by the Cellometer image analysis software to directly determine the cell concentration of fluorescently labelled cells. […]

HSV-1 = assay: Protection from HSV-1 cytopathic effect in HEp-2 cells (microscopy); type: cell-based; details: different concentrations, 24 h
Source text: FIG. 15 depicts the results of in vitro testing to confirm the protective effect of a representative compound (SD-29-14) from the cytopathic effect caused by HSV-1. […] After washing away the virus with PBS, images were taken under a compound microscope.

Human Annexin A2 = assay: LC-MS of Annexin A2 abundance after compound treatment; type: cell-based; set-up: Annexin A2 fragment abundance: reference not given here; details: for Abundance ratio 1: SD29-14 over DMSO (10 uM); for Abundance ratio 2: SD29-14 over DMSO (100 uM)
Description: To further confirm this mechanism of action, LC-MS (Liquid Chromatography-Mass Spectrometry) was conducted to determine the effect of RACK1 inhibition on ANXA2 expression.

HEp-2 cells = assay: Trypan blue exclusion cell viability; type: cell-based; details: 24-hour treatment
Description: In order to assess whether the compounds are producing any toxicity that can led to the cell deaths, we evaluated the cell viability by the trypan blue exclusion method. As long-term inhibition of RACK1 expression has been reported to cell cycle arrest, we limited our experimental treatments to 24 h and evaluated the cell viability of almost full confluent cells after 24 h of compound treatment.
In table 2, the viability of cells was measured with Trypan blue exclusion assay in a Cellometer (Nexcelom, Lawrence, MA). The percentage survival of the compound treated cells was evaluated along with the DMSO treated cells. The values represent the mean f SE of three separate well based replicates.

HSV-1 ICP0 protein = assay: Immunofluorescence and confocal microscopy of ICP0 in Hep-2 cells; type: cell-based; details: 10 μM, HSV-1 MOI 1.0, 30 h
Description: The HEp-2 cells were infected with HSV-1 at an MOI of 1.0 for 30 h along with the indicated compounds and control. The cells were fixed with 4% paraformaldehyde and stained with anti-ICPO-FITC in green and DAPI (blue for DNA label in the nucleus). The slides were observed under a Nikon confocal microscope (60× magnification lens) and pictures were taken to show infected cells (green) and total cells (DAPI). All scale bars correspond to 20 μm. The imaging experiments were performed three independent times, and the results as shown are representative of one of three experiments.
Hep-2 cells were grown to about 80% confluency in 12 well plate and the cells were co-infected with HSV-1 at an MOI of 1.0 for 30 h along with the indicated inhibitor compounds and control. The cells were fixed at room temperature with 4% paraformaldehyde-PBS for 15 minutes and then permeabilized at room temperature by 0.5% Triton X-100-PBS (pH 7.4) for 10 min. The cells were then washed 3× with Ice cold PBS. The cells were incubated with 1% BSA, 22.52 mg/mL glycine in PBST (PBS+0.1% Tween 20) for 30 min to block unspecific binding of the antibodies. The cells were incubated in the 1:500 diluted anti-ICP0 antibody in 1% BSA in PBST in a humidified chamber overnight at 4° C. […]

Compound: Nn1c(S)nnc1-c1cc(Cl)cc(Cl)c1 [SD-29-14]
- ABA-induced RACK1A Y248 phosphorylation [1]: prevented the ABA-induced Y248 phosphorylation
- total cell counts ([2]; 10 μM): 4.69e+06 mL⁻¹
- total cell counts ([2]; 100 μM): 5.36e+06 mL⁻¹
- cytopathic effect caused by HSV-1 (HSV-1): do not show the cytopathic effect
- abundance of human ANXA2 (Human Annexin A2; LC-MS, SD29-14 treatment): increased abundance
- Annexin A2 fragment abundance (Human Annexin A2; fragment DALNIETAIK, 10 uM): 317727.9
- Annexin A2 fragment abundance (Human Annexin A2; fragment DALNIETAIK, 100 uM): 130507.6
- Abundance ratio 1 (Human Annexin A2; fragment DALNIETAIK): 7.765
- Abundance ratio 2 (Human Annexin A2; fragment DALNIETAIK): 3.19
- Annexin A2 fragment abundance (Human Annexin A2; fragment GVDEVTIVNILTNR, 10 uM): 133381
- Annexin A2 fragment abundance (Human Annexin A2; fragment GVDEVTIVNILTNR, 100 uM): 9540
- Abundance ratio 1 (Human Annexin A2; fragment GVDEVTIVNILTNR): >100
- Abundance ratio 2 (Human Annexin A2; fragment GVDEVTIVNILTNR): >100
- Annexin A2 fragment abundance (Human Annexin A2; fragment TNQELQEINR, 10 uM): 462054
- Annexin A2 fragment abundance (Human Annexin A2; fragment TNQELQEINR, 100 uM): 190293
- Abundance ratio 1 (Human Annexin A2; fragment TNQELQEINR): 10.502
- Abundance ratio 2 (Human Annexin A2; fragment TNQELQEINR): 4.325
- HEp-2 Cell viability, Mean (percentage survival) (HEp-2 cells; 10 μM): 97.5%
- HEp-2 Cell viability, Mean (percentage survival) (HEp-2 cells; 100 μM): 93.7%
- expression of ICP0 protein (immunofluorescence) (HSV-1 ICP0 protein): effectively eliminated any expression of ICP0 protein
